Assays:
[1] = test system: LDLR mRNA; assay: LDLR mRNA levels in Bel-7402 cells (quantitative RT-PCR); type: cell-based, human
Method: Bel-7402 cells were treated with 0, 0.5, 1, 2.5, 5, μg/ml of berberine or 2.5, 7.5 and 15 μg/ml of berberine sulfate. The cells were then centrifuged and washed and LDLR mRNA was extracted. LDLR mRNA levels were then measured using scan quantitative RT-PCR, (FIGS. 3 A and B).

[2] = test system: PKC; assay: Cellular PKC activity in HepG2 cells (PepTag assay); type: cell-based, human
Method: To determine whether berberine directly activates PKC, pGL3-1.5kIRP transfected HepG2 cells were either not treated, treated with 0.2 μM of calphostin C, 5 μg/ml of berberine or 0.5 μM of PKC activator phorbol-12-myristate-13-acetate (PMA) (Gandino, Oncogene, 5(%), 721-725 (1990) or combinations thereof for eight hours. The activity of total PKC in the control and berberine treated cells was assessed by PKC activity assay.
Cellular PKC activity was analyzed using the PepTag® Assay for Non-Radioactive Detection of Protein Kinase-C or cAMP-Dependent Protein Kinase kit (Promega) according to the protocol. Briefly, after homogenization and partial purification, 10 μl of sample protein was mixed with 5 μl of PepTag® Cl peptide (specific substrate of PKC), 5 μl of reaction buffer and 5 μl of PKC activator solution in a 25 μl reaction system. The reactions were performed at 30° C. for 30 minutes. Then, the samples were loaded onto a 0.8% agarose gel. […] They were transferred to a 96-well plate and quantified using densitometry according to the supplier's protocol. The catalytic activity of total PKC of a specific sample was expressed as pmol/min/mg, representing the number of picomoles of phosphate transferred to the substrate per minute per milligram of proteins of the sample.

[3] = clinical; details: human, in vivo, po, 300 mg
Method: Healthy human volunteers were given 300 mg of berberine orally. […] The blood concentration curve was analyzed by 3P87 Pharmacokinetics Software program (Chinese Pharmacological Association, China).

[4] = test system: ERK; assay: ERK activation in HepG2 or Bel-7402 cells (western blotting, phosphorylated ERK); type: cell-based, human; details: both hepatoma cell lines HepG2 and Bel-7402; 0.25-24 hours
Method: HepG2 or Bel-7402 cells were treated with berberine for 0.25, 0.5, 0.75, 1, 2, 8, and 24 hours respectively and tested for levels of activated ERK by western blotting using antibodies that only recognize the activated (phosphorylated) ERK. […] The activation of berberine is also dose dependent (FIG. 14C).

[5] = test system: InsR mRNA; assay: InsR mRNA expression in HepG2 cells (real time RT-PCR, slot blot); type: cell-based, human; details: HepG2, 2.5 μg/ml for 8 hours
Method: Cells from the human hepatoma cell line HepG2 were incubated with 0, 1, 2.5, 5, 10 or 15 μg/ml of berberine respectively for eight hours. Total cellular RNA was isolated using the Ultraspec RNA lysis solution (Biotecxs Laboratory, Houston, Tex.) following the vender's protocols. […] of the RNA sample was transferred to nitrocellulose membrane via a slot-blot apparatus (Schleicher & Schuell, Keene, N.H.). The blots were fixed by baking at 80° C. for 2 h, followed by hybridization to a 0.89-kb long, 32P-labelled human InsR cDNA probe. The same membranes were then stripped and re-hybridized to a human ACTB probe as internal control. Quantitative real time RT-PCR assays were also done. For the RT-PCR assay, total cellular RNA was reverse-transcribed into cDNA using the Reverse Transcription System (Promega, Madison, Wis.). Quantitative real-time PCR were performed with these cDNA using the Applied Biosystems 7500 Real-Time PCR System and TaqMan® Universal PCR Master Mix (Applied Biosystems, Foster City, Calif.). […] 2.5 μl of cDNA sample, 12.5 μl of Universal PCR Master Mix, and 1.25 μl of TaqMan® Gene Expression Assay reagent were mixed in a 25 μl reaction system, and the comparative CT method was used in relative gene quantification using the TaqMan® SDS analysis software. […]

[6] = test system: InsR mRNA; assay: InsR mRNA stability after actinomycin D in HepG2 cells (slot blot); type: cell-based, human; details: HepG2, […] 8 h then actinomycin D; untreated cells 4.4 hr
Method: HepG2 cells were treated or untreated with 7.5 μg/ml of berberine for 8 h. Then, 5 μg/ml of actinomycin D was added to block the transcription. Total cellular RNA was harvested at 0, 2, 4, 6, or 8 hours after actinomycin D treatment, and slot-blotted to nitrocellulose membranes as described above. The membranes were respectively hybridized with InsR and ACTB specific probes as described above, and bands were quantitated through densitometry. The InsR mRNA levels were normalized to ACTB, and their remaining percentages are plotted against time and the decaying rate or half-life of InsR mRNA was calculated (FIG. 21B).

COc1ccc2cc3[n+](cc2c1OC)CCc1cc2c(cc1-3)OCO2 [berberine]
increase of LDLR mRNA expression ([1]; 5 μg/ml): 2.3 fold
LDLR mRNA expression, dose dependence ([1]; berberine 0.5-5 μg/ml, berberine sulfate 2.5, 7.5, 15 μg/ml): increased LDLR mRNA expression in a dose dependent fashion
time at which elevation of PKC activity was first observed ([2]; after berberine treatment): 0.5 h
PKC activity in liver cells ([2]; time-dependent): increased
AUC [3]: 2800 ng·h/mL
Cmax [3]: 395 ng/mL
clear rate CL [3]: 130.5 L/h
half-life [3]: 2.91 h
ERK activation (phosphorylated ERK) [4]: rapidly activated ERK
increase of InsR mRNA [5]: 40%
turnover rate (half-life) of InsR transcript [6]: 4.7 h

— US20080081781A1, “Methods and compositions for the treatment of metabolic syndrome” (priority 2004, published 2008)
